From US10729695B2, “Amino, amido and heterocyclic compounds as modulators of RAGE activity and uses thereof” (The Research Foundation for the State University of New York, priority 2013, dated 2020)

Legend:
[1] = test system: primary murine aortic smooth muscle cells; assay: Murine smooth muscle cell migration (scratch wound, CML AGE); format: cell-based, C57BL/6 mice; conditions: 1 μM pre-treatment 1.5 hours, CML AGE 100 μg/ml, 7 hrs
Description: Effects of CB-1 to CB-14 on Murine Smooth Muscle Cell Migration. Primary murine aortic smooth muscles retrieved from wild type C57BL/6 mice were grown to 90% confluency in medium containing 10% fetal bovine serum. Cells were serum starved for 16 hrs during which time fetal bovine serum was replaced with 0.1% bovine serum albumin. Following this period of serum starvation, cells were pre-treated for 1.5 hours with the indicated Chembridge library hit denoted #1-14 at a concentration of 1 μM. At the end of that time, compounds were removed and cell monolayers were vertically scratched with a pipet tip to create a “wound” and then RAGE ligand carboxy methyl lysine human serum albumin (CML AGE), 100 μg/ml, was added for 7 hrs. Photographs of the monolayer were taken at time 0 (time of scratch/CML AGE) and at 7 hrs. The ingrowth of the cells was then noted and % area ingrowth was calculated comparing ingrowth at baseline to that at 7 hrs. N=triplicate experiments. * indicates p<0.05

[2] = test system: primary human aortic smooth muscle cells; assay: Human smooth muscle cell migration (scratch wound, CML AGE); format: cell-based; conditions: 1 μM pre-treatment 1.5 hours, CML AGE 100 μg/ml, 7 hrs
Description: Effects of CB-1 to CB-14 on Human Smooth Muscle Cell Migration. Primary human aortic smooth muscles were purchased from Lonza and were grown to 90% confluency in medium containing 10% fetal bovine serum. Cells were serum starved for 16 hrs during which time fetal bovine serum was replaced with 0.1% bovine serum albumin. Following this period of serum starvation, cells were pre-treated for 1.5 hours with the indicated Chembridge library hit denoted #1-14 at a concentration of 1 μM. At the end of that time, compounds were removed and cell monolayers were vertically scratched with a pipet tip to create a “wound” and then RAGE ligand carboxy methyl lysine human serum albumin (CML AGE), 100 μg/ml, was added for 7 hrs. Photographs of the monolayer were taken at time 0 (time of scratch/CML AGE) and at 7 hrs. The ingrowth of the cells was then noted and % area ingrowth was calculated comparing ingrowth at baseline to that at 7 hrs. N=triplicate experiments. * indicates p<0.05 (FIG. 8)

[3] = test system: delayed type hypersensitivity (DTH) mediated inflammation in mice; assay: In vivo model of delayed type hypersensitivity (DTH), paw inflammation score; design: species or system CF-1 mice; conditions: 5 mg/kg intraperitoneal, four doses; for Inflammation Score Compound ± SEM: paw scored 16 hrs after mBSA, scale 1-5, n=5 mice/group; for reduction in inflammation score in the paw compared to vehicle: vs DMSO vehicle
Description: Effects of CB Compounds 1-14 on an in vivo model of delayed type hypersensitivity (DTH). Female CF-1 mice were purchased from the Jackson Laboratories (Bar Harbor Me.) and after a period of at least 3 days acclimation in the animal facility, mice were sensitized over the left inguinal lymph node with an emulsion (0.1 ml) containing methylated bovine serum albumin (mBSA, Sigma, 25 mg/ml), NaCl (0.9%), dextran 5-40×10^6 MW; 50 mg/ml (Sigma), and Freunds' incomplete adjuvant (50%). On day 19 and 20 after sensitization, mice received an intraperitoneal dose of one of CB compounds 1-14 at 5 mg/kg/body weight mouse for a total of four doses. Control animals received equal volumes of compound diluent, DMSO. Immediately following the final compound injection (4th dose), mBSA (0.4 mg/ml; 0.050 ml) was injected into the left plantar hind paw. The paw was scored 16 hrs later by 2 investigators naive to the experimental condition and according to the following criteria: 1=absence of any inflammation; 2=slight rubor and edema; 3=moderate rubor and edema with skin wrinkles; 4=severe rubor and edema without skin wrinkles and 5=severe rubor and edema with toe spreading. See also Hofmann et al. (1999, Cell 97:889-901), the entire content of which is incorporated herein in its entirety. In these experiments, n=5 mice/group.

[4] = biological target: RAGE tail (ctRAGE) binding to mDial (Homo sapiens (Human), UniProt Q15109); assay: Primary screen: binding of GFP RAGE tail to mDial at one concentration (10 uM); conditions: 10 μM compound
RAGE tail (ctRAGE) binding to mDial, sequence (Q15109 364-404): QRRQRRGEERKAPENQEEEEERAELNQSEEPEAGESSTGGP
Description: Primary screening was a two-step process in which compounds were first tested in a high throughput assay at one concentration (10 uM). Compounds that reduced binding of RAGE tail (ctRAGE) by at least 50% were then selected and subjected to 4-point dose response (10 uM, 1 uM, 0.1 uM and 0.01 uM) (FIGS. 1, 4, and 5).
Step 1. Add 50 μl anti-mDial (1:160 dilution in 0.1M NaHCO3 pH 9.6)/well. Incubate overnight at 4° C.
Step 2. Use the plate washer to aspirate anti-mDial and wash plates 4× with PBS 100 μl per well per wash.
Step 3. Add 180 μl 3% BSA in 1×PBS. Incubate for 1.5 hrs at room temperature
Step 4. Use the plate washer to aspirate the blocking solution and wash 5× with PBS 300 μl per well.
Step 5. Add 50 μl of mDial containing lysate (85 μg) and incubate at RT for 3 hours.
Step 6. Aspirate the lysate and wash the plate 5× (100 μl) on the plate washer.
Step 7. Add 25 μl PBS to the wells.
Step 8. Add 0.5 μL compound per well.
Step 9. Add 24.5 μL GFP RAGE tail (125 nM) into each well for 2 hrs at room temperature.
Step 10. Aspirate and wash 5× with PBS (100 μL) on the plate washer.
Step 11. Add 100 ul PBS in each well.
Step 12. Detection: Read on fluorescence plate reader excitation 435 nm and 485 nm emission
Compounds that blocked the binding of RAGE tail to mDial by 50% or more were subjected to 4 point dose response: 10 μM, 1 μM, 0.1 μM and 0.01 μM.

[5] = biological target: RAGE tail (Homo sapiens (Human), UniProt Q15109); assay: RAGE tail fluorescence titration (Kd determination); conditions: binding to RAGE tail
RAGE tail, sequence (Q15109 364-404): as above
Description: Binding affinities of small molecules for either CT-RAGE or FH1 are determined by performing fluorescence titrations to generate binding isotherms and standard SPR experiments.
A number of representative amino and amido compounds of this invention were or can be tested for their inhibitory activity.
(§1) Fluorescence quenching was used to determine binding.
A number of representative heterocylic compounds of this invention were or can be tested for their inhibitory activity.
as §1, §1

inhibition at 10 µM [4]	Kd [5]	Compound	RAGE ligand CML AGE-mediated ingrowth (migration) [1]	RAGE ligand CML AGE-mediated ingrowth (migration) [2]	Inflammation Score Compound ± SEM [3]	reduction in inflammation score in the paw compared to vehicle [3]
–	–	CC1=NN(c2nc3ccccc3[nH]2)C(=O)C1CCC(C)C (stereo not shown) [CB-10]	prevent RAGE ligand CML AGE-mediated ingrowth (migration)	prevent RAGE ligand CML AGE-mediated ingrowth (migration)	3.2 ± 0.84/3.6 ± 0.55	–
31%	–	CC(=O)Nc1ccc(C(=O)Nc2nccs2)cc1 [CD-1]	–	–	–	–
–	–	Oc1cccc(Nc2nc(-c3ccc(F)cc3F)cs2)c1 [CB-5]	prevent RAGE ligand CML AGE-mediated ingrowth (migration)	prevent RAGE ligand CML AGE-mediated ingrowth (migration)	3.6 ± 0.55/3.4 ± 0.55	–
48%	–	CC1=NN(c2nc3ccccc3s2)C(=O)C1CCC(C)C (stereo not shown) [CD-20]	–	–	–	–
26%	–	OC(COCc1ccccc1)Cn1cnc2ccccc21 (stereo not shown) [CD-14]	–	–	–	–
69%	–	OC(COc1cccc2ccccc12)Cn1cnc2ccccc21 (stereo not shown) [CD-16]	–	–	–	–
31%	–	CN(Cc1ccccc1)CC(O)Cn1cnc2ccccc21 (stereo not shown) [CD-7]	–	–	–	–
45%	–	OC(CN(c1ccccc1)c1ccccc1)Cn1cnc2ccccc21 (stereo not shown) [CD-18]	–	–	–	–
–	0.55 ± 0.05 nM	COc1ccccc1-c1cc(C(F)(F)F)nc(N2CCOCC2)n1 [CB-7]	prevent RAGE ligand CML AGE-mediated ingrowth (migration)	prevent RAGE ligand CML AGE-mediated ingrowth (migration)	3.4 ± 0.55/3.6 ± 0.55	–
–	123 ± 1 nM	Cc1c(Cl)cccc1NC(=O)CNC(=O)c1ccccc1F [CB-13]	prevent RAGE ligand CML AGE-mediated ingrowth (migration)	prevent RAGE ligand CML AGE-mediated ingrowth (migration)	3.4 ± 0.55/3.4 ± 0.55	–
–	6.5 ± 1 nM	C=CCOc1ccc2c(C(F)(F)F)cc(=O)oc2c1 [CB-2]	prevent RAGE ligand CML AGE-mediated ingrowth (migration)	prevent RAGE ligand CML AGE-mediated ingrowth (migration)	3.2 ± 0.45/3.4 ± 0.55	–
–	1.4 ± 0.3 nM	Oc1ccc(NCc2ccc(Br)cc2)cc1 [CB-14]	prevent RAGE ligand CML AGE-mediated ingrowth (migration)	prevent RAGE ligand CML AGE-mediated ingrowth (migration)	3.2 ± 0.45/3.4 ± 0.55	–
–	2 ± 0.5 nM	COC(=O)c1cc(OC)c(OC)cc1NC(=O)C1Oc2ccccc2OC1C (stereo not shown) [CB-8]	prevent RAGE ligand CML AGE-mediated ingrowth (migration)	prevent RAGE ligand CML AGE-mediated ingrowth (migration)	3.4 ± 0.55/3.6 ± 0.55	–
24%	–	O=C(O)c1ccccc1OCC(O)Cn1cnc2ccccc21 (stereo not shown) [CD-19]	–	–	–	–
42%	–	COc1ccccc1-c1cc(C(F)(F)F)nc(N2CCN(c3ccccc3OC)CC2)n1 [CD-42]	–	–	–	–
–	17300 ± 500 nM	Cc1ccc(S(=O)(=O)N(C)C(F)F)cc1 [CB-9]	prevent RAGE ligand CML AGE-mediated ingrowth (migration)	prevent RAGE ligand CML AGE-mediated ingrowth (migration)	3.6 ± 0.55/3.6 ± 0.55	–
11%	–	O=C(O)COc1ccc2c(C(F)(F)F)cc(=O)oc2c1 [CD-12]	–	–	–	–
–	–	COc1cc(NC(C)=O)c(Cl)cc1C(=O)Nc1nccs1 [CB-6]	prevent RAGE ligand CML AGE-mediated ingrowth (migration)	prevent RAGE ligand CML AGE-mediated ingrowth (migration)	3.0 ± 0.71/3.6 ± 0.55	–
27%	–	N#Cc1ccc(OCC(O)Cn2cnc3ccccc32)cc1 (stereo not shown) [CD-8]	–	–	–	–
–	> 100000 nM	COC(=O)c1cc(-c2ccc(NC(C)=O)cc2)nc2ccccc12 [CB-12]	prevent RAGE ligand CML AGE-mediated ingrowth (migration)	prevent RAGE ligand CML AGE-mediated ingrowth (migration)	2.4 ± 0.55/3.4 ± 0.55	statistically significant reduction in inflammation score
–	18 ± 1 nM	Cc1nc2ccccc2n1CC(O)Cn1c2ccccc2c2ccccc21 (stereo not shown) [CB-3]	prevent RAGE ligand CML AGE-mediated ingrowth (migration)	prevent RAGE ligand CML AGE-mediated ingrowth (migration)	2.2 ± 0.45/3.4 ± 0.55	statistically significant reduction in inflammation score
–	2 ± 1 nM	OC(Cn1ccc2ccccc21)Cn1cnc2ccccc21 (stereo not shown) [CB-4]	prevent RAGE ligand CML AGE-mediated ingrowth (migration)	prevent RAGE ligand CML AGE-mediated ingrowth (migration)	3.0 ± 0.71/3.4 ± 0.55	–
–	4 nM	Cn1c(=O)n(CC(O)Cn2c3ccccc3c3ccccc32)c2ccccc21 (stereo not shown) [CD-6]	–	–	–	–
18%	–	COc1ccccc1-c1cc(C(F)(F)F)nc(NC2CCCCC2)n1 [CD-21]	–	–	–	–
–	1.2 ± 0.5 nM	Cc1cc2n(c1)CCn1c(C)ccc1-2 [CB-11]	prevent RAGE ligand CML AGE-mediated ingrowth (migration)	prevent RAGE ligand CML AGE-mediated ingrowth (migration)	3.2 ± 0.45/3.4 ± 0.55	–
37%	–	OC(COc1ccccc1)Cn1cnc2ccccc21 (stereo not shown) [CD-28]	–	–	–	–
–	75 nM	OC(Cn1ccnc1)Cn1c2ccccc2c2ccccc21 (stereo not shown) [CD-4]	–	–	–	–
–	4 ± 1 nM	COc1cc(SC)ccc1C(=O)Nc1cccc(C)n1 [CB-1]	no inhibitory effect	no inhibitory effect	3.4 ± 0.55/3.4 ± 0.55	–
–	78 nM	Cc1nccn1CC(O)Cn1c2ccccc2c2ccccc21 (stereo not shown) [CD-29]	–	–	–	–
